What all share (parameters): dose 1 mg/kg, route intravenous
Data set [1] is described as follows: Area under the curve was measured in dog after an iv dose of 1 mg/kg. Type of data set: ADME, organism-based, Canis lupus familiaris. Conditions: in vivo.
A short description of data set [2]: Plasma clearance for the compound was measured in rat after an iv dose of 1 mg/kg. It is filed as ADME, organism-based. The settings on record: read-out: Clp (converted).
Data set [3] in a line: Plasma clearance for the compound was measured in dog after an iv dose of 1 mg/kg. Type of data set: ADME, organism-based, Canis lupus familiaris. Conditions: read-out: Clp (converted).
The nature of data set [4]: Half-life was measured in rat after an iv dose of 1 mg/kg. Type of data set: ADME, organism-based. The settings on record: in vivo.
The nature of data set [5]: Volume of distribution was measured in rat after an iv dose of 1 mg/kg. It is filed as ADME, organism-based. Conditions: in vivo, read-out: Vv.
Data set [6] can be described thus: Terminal phase volume of distribution was measured in rat after an iv dose of 1 mg/kg. Type of data set: ADME, organism-based. The settings on record: in vivo, read-out: Va beta.
A short description of data set [7]: Half-life was measured in mouse after an iv dose of 1 mg/kg. It is filed as ADME, organism-based. The settings on record: in vivo.
Data set [8] can be described thus: Volume of distribution was measured in mouse after an iv dose of 1 mg/kg. Type of data set: ADME, organism-based. The settings on record: in vivo, read-out: Vv.
Data set [9] can be described thus: Terminal phase volume of distribution was measured in dog after an iv dose of 1 mg/kg. Type of data set: ADME, organism-based, Canis lupus familiaris. The settings on record: in vivo, read-out: Va beta.
A short description of data set [10]: Terminal phase volume of distribution was measured in mouse after an iv dose of 1 mg/kg. It is filed as ADME, organism-based. Conditions: in vivo, read-out: Va beta.
Data set [11] can be described thus: Half-life was measured in dog after an iv dose of 1 mg/kg. It is filed as ADME, organism-based, Canis lupus familiaris. The settings on record: in vivo.
A short description of data set [12]: Volume of distribution was measured in monkey after an iv dose of 1 mg/kg. Type of data set: ADME, organism-based. The settings on record: cercopithecidae, in vivo, read-out: Vv.
The nature of data set [13]: Area under the curve was measured in rat after an iv dose of 1 mg/kg. It is filed as ADME, organism-based. The settings on record: in vivo.
Data set [14] in a line: Area under the curve was measured in mouse after an iv dose of 1 mg/kg. It is filed as ADME, organism-based. Conditions: in vivo.
Data set [15] is described as follows: Half-life was measured in monkey after an iv dose of 1 mg/kg. Conditions: cercopithecidae, in vivo. Type of data set: ADME, organism-based.
Data set [16] is described as follows: Area under the curve was measured in monkey after an iv dose of 1 mg/kg. It is filed as ADME, organism-based. Conditions: cercopithecidae, in vivo.
A short description of data set [17]: Terminal phase volume of distribution was measured in monkey after an iv dose of 1 mg/kg. Type of data set: ADME, organism-based. Conditions: cercopithecidae, in vivo, read-out: Va beta.
Data set [18] can be described thus: Plasma clearance for the compound was measured in monkey after an iv dose of 1 mg/kg. Conditions: cercopithecidae, read-out: Clp (converted). Type of data set: ADME, organism-based.
Data set [19] in a line: Volume of distribution was measured in dog after an iv dose of 1 mg/kg. Type of data set: ADME, organism-based, Canis lupus familiaris. Conditions: in vivo, read-out: Vv.
Data set [20] in a line: Plasma clearance for the compound was measured in mouse after an iv dose of 1 mg/kg. Type of data set: ADME, organism-based. Conditions: read-out: Clp (converted).

Starred links: 1 amine or outer side, 2 acyl side, 3 side chain; linkers in the order of their positions; H or OH if unused. Positions of bridges follow the written chain, without caps; N, C: chain ends. Non-standard residues stand in square brackets, D forms with d. Residues, ends and D or L forms follow the SMILES beside them. *: point of attachment. pTerphenylCO(4''-OnC5H11) = CCCCCOc1ccc(-c2ccc(-c3ccc(C(=O)*)cc3)cc2)cc1; X1 = NCC(=O)Nc1cc(CC[C@H](N[*:1])C(=O)[*:2])ccc1O; X2 = NC(N)=N[C@H]1CC(C(=O)[*:2])N([*:1])C1; Hyp = O=C(O)[C@@H]1C[C@@H](O)CN1; Orn = NCCC[C@H](N)C(=O)O

1 compound from ChEMBL document CHEMBL1136559, “Discovery, SAR, synthesis, pharmacokinetic and biochemical characterization of A-192411: a novel fungicidal lipopeptide-(I)” (Bioorg Med Chem Lett, 2003) can be followed below.

For orientation: AUC means concentration integrated over time. The half-life is the time in which the quantity being followed falls by half.

Take `CCCCCOc1ccc(-c2ccc(-c3ccc(C(=O)N[C@H]4CCCNC(=O)C5C[C@H](N=C(N)N)CN5C(=O)[C@H]([C@@H](C)O)NC(=O)[C@H](CCc5ccc(O)c(NC(=O)CN)c5)NC(=O)[C@@H]5C[C@@H](O)CN5C(=O)[C@H]([C@@H](C)O)NC4=O)cc3)cc2)cc1` (stereo not given in full) ({pTerphenylCO(4''-OnC5H11)}-[Orn]T[Hyp][X1]T[X2]; lactam 1-C): the AUC worked out at 36400 ng·h/mL in data set [1], 11700 ng·h/mL in [13], 16800 ng·h/mL in data set [14] and 6550 ng·h/mL in data set [16]. In addition, the clearance is 2.33 mL/min/kg in data set [2], 0.5 mL/min/kg in data set [3], 2.83 mL/min/kg in data set [18] and 1 mL/min/kg in data set [20]. Besides, the half-life was 444 min in data set [4], 690 min in data set [7], 1820 min in [11] and 198 min in data set [15]. Further, the Vd in data set [5] worked out at 0.6 L/kg; in [6], 2.2 L/kg; in data set [8], 0.4 L/kg; in data set [9] it was 1.3 L/kg; in data set [10], 1 L/kg; in data set [12], 0.2 L/kg. The Vd in data set [17] came to 0.9 L/kg; in data set [19], 0.6 L/kg.
